Legend:
A549 [1] = assay: Anticancer activity against human A549 cells by MTT assay; assay type: functional, cell-based
SK-OV-3 [2] = assay: Anticancer activity against human SKOV3 cells by MTT assay; assay type: functional, cell-based
SK-MEL-2 [3] = assay: Anticancer activity against human SK-MEL-2 cells assessed as growth inhibition at 100 uM by MTT assay; assay type: functional
DU-145 [4] = assay: Anticancer activity against human DU145 cells assessed as growth inhibition at 100 uM by MTT assay; assay type: functional
SK-MEL-2 [5] = assay: Anticancer activity against human SK-MEL-2 cells by MTT assay; assay type: functional, cell-based
SK-OV-3 [6] = assay: Anticancer activity against human SKOV3 cells assessed as growth inhibition at 100 uM by MTT assay; assay type: functional
HT-29 [7] = assay: Anticancer activity against human HT-29 cells assessed as growth inhibition at 100 uM by MTT assay; assay type: functional
A549 [8] = assay: Anticancer activity against human A549 cells assessed as growth inhibition at 100 uM by MTT assay; assay type: functional
HT-29 [9] = assay: Anticancer activity against human HT-29 cells by MTT assay; assay type: functional, cell-based
DU-145 [10] = assay: Anticancer activity against human DU145 cells by MTT assay; assay type: functional, cell-based
SK-MEL-2 [11] = assay: Anticancer activity against human SK-MEL-2 cells assessed as growth inhibition at 10 uM by MTT assay; assay type: functional
HT-29 [12] = assay: Anticancer activity against human HT-29 cells assessed as growth inhibition at 10 uM by MTT assay; assay type: functional
MCF7 = assay: Anticancer activity against human MCF7 cells by MTT assay; assay type: functional, cell-based
DU-145 [13] = assay: Anticancer activity against human DU145 cells assessed as growth inhibition at 10 uM by MTT assay; assay type: functional

Structure (SMILES) | IC50 (A549 [1]) [µM] | IC50 (SK-OV-3 [2]) [µM] | inhibition at 100 µM (SK-MEL-2 [3]) [%] | inhibition at 100 µM (DU-145 [4]) [%] | IC50 (SK-MEL-2 [5]) [µM] | inhibition at 100 µM (SK-OV-3 [6]) [%] | inhibition at 100 µM (HT-29 [7]) [%] | inhibition at 100 µM (A549 [8]) [%] | IC50 (HT-29 [9]) [µM] | IC50 (DU-145 [10]) [µM] | inhibition at 10 µM (SK-MEL-2 [11]) [%] | inhibition at 10 µM (HT-29 [12]) [%] | IC50 (MCF7) [µM] | inhibition at 10 µM (DU-145 [13]) [%]
O=S(=O)(NCCC(c1ccccc1)c1ccccc1)c1ccc(Cl)cc1 | 30.9 | 35 | 77.8 | 73.5 | 18.9 | 62 | 87.5 | 65.7 | 18.8 | 26.1 | – | – | – | –
Oc1ccc(C2=Nc3ccccc3S[C@H](c3ccccc3)C2)cc1 | 33.2 | 61.6 | 57.1 | 59.9 | 47.1 | 51.6 | 67.9 | 55.8 | 40.7 | 30.6 | – | – | – | –
COc1ccc(Nc2nc(NCc3ccco3)c3ccccc3n2)cc1 | – | – | 89.3 | – | – | 92.5 | 90.9 | – | 0.902 | 24.5 | 22.8 | 64.2 | 7.25 | 28.7
COc1ccc(Nc2nc(NCc3ccccc3)c3ccccc3n2)cc1 | – | – | 89.3 | – | – | 92.3 | 92.9 | – | 13.4 | 21.3 | 81.2 | 80.7 | – | 52.2
O=S(=O)(NCCc1c[nH]c2ccc(F)cc12)c1ccc(Br)cc1OC(F)(F)F | 55 | > 100 | 34 | 44.4 | 45.8 | 22.5 | 63.5 | 43.5 | 33.4 | 39.4 | – | – | – | –
O=S(=O)(Nc1ccccc1Oc1ccc(Cl)cc1Cl)c1ccccc1 | 35.5 | > 100 | 43.9 | 52.6 | 44.2 | 40.1 | 51.1 | 55 | 65.1 | 44 | – | – | – | –
CCOc1ccc(Nc2nc(NCc3ccccc3)c3ccccc3n2)cc1 | – | – | 88 | – | – | 91.8 | 92.9 | – | 16.5 | 19.2 | 91.6 | 83.3 | – | 58
Oc1ccc(Nc2nc(NCc3ccco3)c3ccccc3n2)cc1 | – | – | 86.2 | – | – | 92.3 | 93.3 | – | 14 | 22.7 | 39 | 67.6 | – | 30.3
O[C@H]1CCN(c2nc(Nc3cccc4c3CCCC4)c3ccccc3n2)C1 | 12.9 | 16.8 | 79.5 | 88.7 | 15.9 | 89.5 | 86.1 | 88.8 | 7.12 | 16.8 | – | – | – | –
CCC(C)(C)c1ccc(O)c(NS(=O)(=O)c2ccccc2OC(F)(F)F)c1 | 38.8 | 38.8 | 52.4 | 60.1 | 53.6 | 46.4 | 37.5 | 50.9 | 24.1 | > 100 | – | – | – | –
COc1ccccc1N/N=C1/C(=O)N(C(N)=S)N=C1c1ccccc1 | 45.2 | 76 | 61 | 48 | 34.9 | 45.5 | 38 | 51.9 | 48.5 | 46.8 | – | – | – | –
CN(C)CCNc1nc(-c2ccc(C(C)(C)C)cc2)nc2ccccc12 | – | – | 89.6 | – | – | 92.3 | 93.4 | – | 8.72 | > 50 | 91.5 | 89.8 | – | 86.5
Cc1cccc(Nc2nc(NCc3ccco3)c3ccccc3n2)c1 | – | – | 78.7 | – | – | 93.3 | 93.6 | – | 10.1 | 19.7 | 77.6 | 77.9 | – | 53.7
O=[N+]([O-])c1cccnc1Sc1ccccc1NS(=O)(=O)c1ccc(Cl)cc1Cl | 26 | 70 | 40.1 | 54.5 | 42.3 | 44 | 44.6 | 47.9 | 63.1 | 53.9 | – | – | – | –
COc1cc(C2N(c3ccc(C)cc3)CCN2c2ccc(C)cc2)ccc1O | 27.6 | > 100 | 58.3 | 40.7 | 32.9 | 34.3 | 64.8 | 51.9 | 27.6 | 43.1 | – | – | – | –
C[C@H](Nc1nc(N2CCNCC2)nc2ccccc12)c1ccccc1 | 13.3 | 14.6 | 85.6 | 87.2 | 5.14 | 86.6 | 86.5 | 90.2 | 4.1 | 12.6 | – | – | – | –
Fc1ccc(Nc2nc(NCc3ccccc3)c3ccccc3n2)cc1 | – | – | 89.9 | – | – | 91.3 | 93.4 | – | 2.41 | 23.4 | 69.9 | 74.4 | – | 38.2
Oc1cccc(Nc2nc(NCc3ccccc3)c3ccccc3n2)c1 | – | – | 78.9 | – | – | 85.5 | 81.9 | – | 15.8 | 22.6 | 46.7 | 61.3 | – | 35
